Experimental findings from patent publication US20020082254A1, “Compounds for treating disorders where a decreased level of plasma FFA is desired” (priority 2000, published 2002) are described below.

In general, inhibition refers to the drop in the measured response relative to a control, in per cent.

One assay concerns the target T1, Lipoprotein lipase (LPL) (Bos taurus, UniProt P11151).
T1 construct: Dr. Gunilla Olivecrona, Umea University (gift)
T1 sequence (P11151 29-478): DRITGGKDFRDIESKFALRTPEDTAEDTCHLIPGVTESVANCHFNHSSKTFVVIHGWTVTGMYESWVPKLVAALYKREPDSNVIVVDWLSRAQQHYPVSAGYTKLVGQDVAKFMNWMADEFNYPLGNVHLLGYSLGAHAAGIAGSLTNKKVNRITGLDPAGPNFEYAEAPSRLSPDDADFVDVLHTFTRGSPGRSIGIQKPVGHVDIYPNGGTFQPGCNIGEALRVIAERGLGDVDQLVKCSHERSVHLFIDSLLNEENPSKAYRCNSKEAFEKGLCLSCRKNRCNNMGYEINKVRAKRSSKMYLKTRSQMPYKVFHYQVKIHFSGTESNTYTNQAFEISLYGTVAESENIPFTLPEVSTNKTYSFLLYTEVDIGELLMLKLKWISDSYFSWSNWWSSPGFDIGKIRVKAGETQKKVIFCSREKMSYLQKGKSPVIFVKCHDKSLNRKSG
Put plainly: Lipoprotein lipase (LPL) inhibition assay, 3H-triolein/intralipid substrate. It is filed as biochemical. The note with it: read-out: LPL inhibition (% inh. at 50 μM). An excerpt: Lipoprotein Lipase (LPL) [Classified as EC 3.1.1.34 in accordance with the Recommendations of the Nomenclature Committee of the International Union of Biochemistry and Molecular Biology (available on the World Wide Web at the following address: http://www.chem.qmw.ac.uk/iubmb/enzyme/)]
Materials. The lipoprotein lipase employed was obtained from Dr. Gunilla Olivecrona of Umea University, Sweden. ^3H-triolein (TO) from Amersham, Buckinghamshire, U.K., cat No. TRA191; 5-20 Ci/mmol dissolved in toluene. Intralipid is from Kabi-Fresenius). Apo CII was obtained from PMSF-treated plasma from overnight fasted rats. All other reagents are of commercial grade and obtained from various commercial sources.
Methods. The preparation of the substrate is as follows:
25 μl of ^3H-Triolein evaporated under a gentle stream of N2 in a 27° C. room in 4 ml chromacol glass followed by the addition of 1 ml 10% intralipid. This is mixed and sonicated on ice for 5 minutes (50% pulse mode). This can be kept for 1 week at 4° C.
100 μl assay medium (0.3M Tris-Cl, 0.2M NaCl, 0.2 mg heparin/ml and 120 mg BSA/ml (fraction V, Sigma no. 3401, pH 8.5))
All mixed in a 13×100 mm glass tube and incubated for at least 5 minutes.
2. Add 5 μl LPL (of a solution containing 500 mU/mg)
Mix and incubate for 30 minutes at 25° C.
3. The reaction is stopped with 3.25 ml of a solution containing Methanol:chloroform:heptan 10:9:7. Add 1.05 ml buffer (100 mM Boric acid, 100 mM potassium carbonate pH 10.5) and mix 10 seconds per vial.
5. Take 1 ml of the upper phase+10 ml scintillation fluid and mix
6. Scintillation count for 5 minutes per vial.

Another assay concerns the target T2, Hepatic lipase (HL) (Homo sapiens, UniProt P11150).
T2 sequence (P11150 23-499): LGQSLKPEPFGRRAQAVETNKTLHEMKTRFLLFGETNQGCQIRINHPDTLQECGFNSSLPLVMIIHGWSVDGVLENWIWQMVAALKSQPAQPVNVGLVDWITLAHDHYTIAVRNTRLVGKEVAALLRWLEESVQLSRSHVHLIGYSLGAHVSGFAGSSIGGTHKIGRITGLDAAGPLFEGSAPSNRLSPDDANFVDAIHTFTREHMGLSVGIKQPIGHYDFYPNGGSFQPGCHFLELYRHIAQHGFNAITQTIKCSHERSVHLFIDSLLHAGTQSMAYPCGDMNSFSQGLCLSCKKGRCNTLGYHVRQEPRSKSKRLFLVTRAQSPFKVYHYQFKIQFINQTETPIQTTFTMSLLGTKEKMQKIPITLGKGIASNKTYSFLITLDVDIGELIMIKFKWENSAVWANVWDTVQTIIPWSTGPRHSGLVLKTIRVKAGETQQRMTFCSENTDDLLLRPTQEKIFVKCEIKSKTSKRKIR
Nature of the assay: Hepatic lipase (HL) inhibition assay, 3H-triolein substrate. It is filed as biochemical. The note with it: read-out: HL inhibition (% inh. at 50 μM). An excerpt:
Hepatic Lipase (HL) [classified as a triacylglycerol lipase, EC 3.1.1.3, in accordance with the Recommendations of the Nomenclature Committee of the International Union of Biochemistry and Molecular Biology (available on the World Wide Web at the following address: http://www.chem.qmw.ac.uk/iubmb/enzyme/)]
Materials. The hepatic lipase employed was obtained from Dr. Howard Wong of the University of California at Los Angeles (UCLA), USA, or produced and purified using the methods and a cell line provided by Dr. Wong's laboratory. ^3H-triolein (TO) from Amersham, Buckinghamshire, U.K., cat No. TRA191; 5-20 Ci/mmol dissolved in toluene and triolein (Sigma, Cat. No. T-1740). All other reagents are of commercial grade and obtained from various commercial sources.
50 μl TO in a 20 ml scintillation vial and evaporate with N2 for 5 minutes.
Add 1 ml 10% gum arabic and 1.25 ml Tris-Cl pH 8.5 and 2 ml MilliQ water.
Sonicate, on ice, 16 times for 30 seconds with a 30-second interval between cycles.
Add 2.5 ml of 5 M NaCl+2.5 ml BSA (10% in Milli Q, pH 8)+3.25 ml Milli Q
Total volume: 12.5 ml (for 80 reactions )
If an inhibitor is going to be used, it should be incubated with the 50 μl HL (of a 125 mU/ml solution) for 70 minutes at 25° C. A 5 μl aliquot from the incubated 50 μl is added to 150 μl assay mix+45 μl Milli Q™ water and mixed.
Incubate for exactly 30 minutes at 25° C.
Stop the reaction with Methanol:chloroform:heptane 10:9:7: 3.25 ml/vial, mix; then add 1.05 ml buffer (100 mM boric acid, 100 mM potassium carbonate pH 10.5), mix for 10 seconds per vial.
Centrifuge for 20 min/2000 rpm
Take 1 ml of the upper phase+10 ml scintillation fluid and mix by shaking by hand.
Scintillation count for 5 minutes per vial.

In the case of `O=C(NN1CCc2ccccc2C1)Oc1ccc(Cl)cc1` [Example 6, (3,4-Dihydro-1H-isoquinolin-2-yl)-carbamic acid 4-chloro-phenyl Ester], the results for the inhibition at 50 µM on Lipoprotein lipase (LPL) and at Hepatic lipase (HL) were 0% and 6%, respectively.

For `CC(C)(C)OC(=O)Nc1ccc(OC(=O)NN2CCc3ccccc3C2)cc1` [Example 17, (3,4-Dihydro-1H-isoquinolin-2-yl)-carbamic Acid 4-tert-butoxycarbonylamino-phenyl Ester], the inhibition at 50 µM at Lipoprotein lipase (LPL) was found to be 0%; at Hepatic lipase (HL), 3%.

Take `CC1Cc2ccccc2CN1NC(=O)Oc1ccc(Cl)cc1` (stereo not drawn) [Example 23, (3-Methyl-3,4-dihydro-1H-isoquinolin-2-yl)-carbamic Acid 4-chloro-phenyl Ester]: the inhibition at 50 µM at Lipoprotein lipase (LPL) and at Hepatic lipase (HL) was 4% each time.
